The subject of the assay is Desulfovibrio longus ATCC 51456. In words: Biocidal efficacy (complete bacterial kill in 2 hours) and Synergy Index against anaerobic sulfate-reducing bacteria. The assay is classed as cell-based. The following applies: 35° C. The method, then: Surfactants and biocides were evaluated for synergy by determining the synergy index (S.I.) of the combination. Synergy index was calculated based on the concentration required to achieve a certain level of bacterial kill when the two antimicrobial compounds (A and B) are used alone and in combinations. The tests organisms were anaerobic sulfate-reducing bacteria (Desulfovibrio longus ATCC #51456). Inside an anaerobic chamber (Bactron anaerobic chamber), a deoxygenated sterile salt solution (3.1183 g of NaCl, 1.3082 mg of NaHCO3, 47.70 mg of KCl, 72.00 mg of CaCl2, 54.49 mg of MgSO4, 172.28 mg of Na2SO4, 43.92 mg of Na2CO3 in 1 L water) was inoculated with Desulfovibrio longus ATCC 51456 to a final bacterial concentration of 10^6 to 10^7 CFU/mL. Aliquots of this cell suspension were then treated with glutaraldehyde, and each of Surf A and B at selected active concentrations. After incubation at 35° C. for 2 hours, viable bacteria in the aliquots were enumerated using serial dilution method. […] SI is calculated as follows: Ca/CA+Cb/CB=Synergy Index (“SI”) Wherein: • Ca=Concentration of biocide A required to achieve a certain level of bacterial kill when used in combination with B • CA=Concentration of biocide A required to achieve a certain level of bacterial kill when used alone • Cb=Concentration of biocide B required to achieve a certain level of bacterial kill when used in combination with A • CB=Concentration of biocide B required to achieve a certain level of bacterial kill when used alone When the sum of Ca/CA and Cb/CB is greater than one, antagonism is indicated.

For `O=CCCCC=O` [Glut, glutaraldehyde], the “Concentration (active ppm) for complete bacterial kill in 2 hours, Glut” value runs as follows: (Table 1, Glut alone or in combination with Surf. A, 10^6 to 10^7 CFU/mL) 8.8 active ppm; (Table 2, Glut alone or in combination with Surf. B) 19.8 active ppm; (Table 3, Glut alone or in combination with Surf. C) 19.8 active ppm.

The record behind these values is patent US20170223953A1, “MICROBICIDAL COMPOSITION” (Dow Global Technologies LLC, priority 2016, published 2017).
